# Measured values reported in EP3900722A1, “COMBINATION OF FINERENONE AND PECAVAPTAN FOR THE TREATMENT AND/OR PREVENTION OF CARDIOVASCULAR AND/OR RENAL DISEASES” (Bayer AG, priority 2020, dated 2021).
# Tested on: awake Wistar rats with activated renin-angiotensin-aldosterone system
# Experiment: In vivo assay for detecting natriuretic activity in conscious rats with activated RAAS
# Design: Volume urine / body weight: unit not given here
# Conditions: 8 hours after oral administration, metabolic cages, 3 mg/kg Finerenone, 0.3 mg/kg Pecavaptan, or both combined, mean ± SD, n = 7-8; for Urinary Na+/K+ concentration ratio: calculated from urinary sodium and potassium concentrations
# From the text: Wistar rats (ca. 250-500 g body weight) were kept with free access to feed (Altromin) and drinking water. […] This sodium-reduced feed causes an activation of the RAAS in the animals during the 3 days run-in phase and therefore mimics a neuroendocrine activation which is characteristic for cardiorenal diseases. During the test, the animals were housed singly in metabolic cages suitable for rats of this weight class (Tecniplast Deutschland GmbH, D-82383 Hohenpeissenberg) with free access to reduced-salt feed and drinking water for up to 24 hours. At the start of the test, the substance to be tested was administered by means of gavage in a volume of 2-3 ml/kg of body weight of a suitable solvent ('Adalat Placebo': 85.8% PEG400, 5.3% glycerol, 8.9% water). Control animals received only solvent ('Adalat Placebo' or solvent in table 2 below). Controls and substance tests were carried out in parallel on the same day. Control groups and substance-dose groups each consisted of 7 to 8 animals. During the test, the urine excreted by the animals was continuously collected in a receiver on the base of the cage. The urine volume per collection time was determined separately for each animal, and the concentration of the sodium and potassium ions excreted in the urine was measured by standard methods of flame photometry by a clinical-chemical analyzer system (ADVIA 2400, Siemens). The sodium/potassium ratio was calculated on the basis of the individual urinary sodium and potassium concentrations. The measurement intervals were typically the period up to 8 hours after the start of the test (day interval) or up to 24 hours after the start of the test (day and night interval).
# In this comparison, four different administrations were performed: Group A received the solvent (Adalat Placebo) only. This group serves as control group. Group B received finerenone only. It serves to detect the effect of the monotherapy with finerenone. Group C received pecavaptan only. It serves to detect the effect of the monotherapy with pecavaptan. Group D received finerenone and pecavaptan in combination. It serves to detect the effect of the combined therapy with finerenone and pecavaptan (combination according to the invention). After the treatment, the urinary volume, urinary sodium and potassium concentrations were measured. Based on this measurement the sodium/potassium ratio was calculated. Table 2: Measured data (mean values ± standard deviation [SD]) of urinary volume, urinary potassium concentration (K+), urinary sodium concentration (Na+), and the resulting urinary sodium / potassium concentration ratio from awake Wistar rats with activated renin-angiotensin-aldosterone system (n = 7-8 animals per group), which were examined according to the 'assessment of the physiological efficacy' for 8 hours after oral administration of the substances in metabolic cages.
SMILES,Urinary K+ concentration [mmol],Urinary Na+ concentration [mmol],Volume urine / body weight,Urinary Na+/K+ concentration ratio,Urinary Na+/K+ concentration ratio (listed as finerenone),Urinary K+ concentration (listed as finerenone),Urinary Na+ concentration (listed as finerenone),Volume urine / body weight (listed as finerenone),Urinary Na+/K+ concentration ratio (listed as pecavaptan),Urinary K+ concentration (listed as pecavaptan),Urinary Na+ concentration (listed as pecavaptan),Volume urine / body weight (listed as pecavaptan)
"CCOc1ncc(C)c2c1[C@H](c1ccc(C#N)cc1OC)C(C(N)=O)=C(C)N2 [Finerenone, (S)-4-(4-cyano-2-methoxyphenyl)-5-ethoxy-2,8-dimethyl-1,4-dihydro-1,6-naphthyridin-3-carboxamide]",0.84 ± 0.04,0.24 ± 0.03,12.069 ±0.563,0.283 ±0.031,increase,no influence,increase,no influence,,,,
"C[C@H](O)c1nc(Cn2nc(-c3ccc(Cl)cc3)n(C[C@H](O)C(F)(F)F)c2=O)nn1-c1cccc(Cl)c1 [Pecavaptan, 5-(4-chlorophenyl)-2-({1-(3-chlorophenyl)-5-[(1S)-1-hydroxyethyl]-1H-1,2,4-triazol-3-yl}methyl)-4-[(2S)-3,3,3-trifluoro-2-hydroxypropyl]-2,4-dihydro-3H-1,2,4-triazol-3-one]",1.35 ± 0.08,0.72 ± 0.11,80.070 ±9.661,0.534 ±0.074,,,,,increased,increases,increases,increases
